# Source: US8680052B1, “Methods of treating, reducing the incidence of, and/or preventing ischemic events” (The Medicines Company, priority 2013, dated 2014)
# Where two headings read alike, the source gives them in different places.
# System: patients with acute coronary syndromes undergoing PCI
# Settings: for IDR / MI / Mortality/MI/IDR / Mortality/Q-wave MI/IDR / Mortality/Q-wave MI/Stent thrombosis / Q-wave MI / Stent thrombosis / All-cause mortality: 30 days; for Angiographic complications (site reported): Abrupt vessel closure / Angiographic complications (site reported): Acute stent thrombosis / Angiographic complications (site reported): Need for urgent CABG / Angiographic complications (site reported): New thrombus or suspected thrombus / Angiographic complications (site reported): Threatened abrupt closure / Angiographic complications (site reported): Unsuccessful procedure: index PCI
smiles,measurement,setting,value
"COC(=O)[C@H](c1ccccc1Cl)N1CCc2sccc2C1 [Clopidogrel, clopidogrel, reference compound]",IDR,ITT With STEMI,15 (3.0) no. (%)
same,MI,ITT With STEMI,17 (3.4) no. (%)
same,Mortality/MI/IDR,ITT With STEMI,41 (8.2) no. (%)
same,Mortality/Q-wave MI/IDR,ITT With STEMI,31 (6.2) no. (%)
same,Mortality/Q-wave MI/Stent thrombosis,ITT With STEMI,26 (5.2) no. (%)
same,Q-wave MI,ITT With STEMI,0 (0.0) no. (%)
same,Stent thrombosis,ITT With STEMI,10 (2.0) no. (%)
same,All-cause mortality,ITT Without STEMI,31 (0.8) no. (%)
same,IDR,ITT Without STEMI,54 (1.4) no. (%)
same,MI,ITT Without STEMI,276 (7.1) no. (%)
same,Mortality/MI/IDR,ITT Without STEMI,332 (8.6) no. (%)
same,Mortality/Q-wave MI/IDR,ITT Without STEMI,88 (2.3) no. (%)
same,Mortality/Q-wave MI/Stent thrombosis,ITT Without STEMI,56 (1.4) no. (%)
same,Q-wave MI,ITT Without STEMI,15 (0.4) no. (%)
same,Stent thrombosis,ITT Without STEMI,20 (0.5) no. (%)
same,All-cause mortality,MITT,38 (0.9) no. (%)
same,IDR,MITT,66 (1.5) no. (%)
same,MI,MITT,292 (6.8) no. (%)
same,Mortality/MI/IDR,MITT,360 (8.4) no. (%)
same,Mortality/Q-wave MI/IDR,MITT,107 (2.5) no. (%)
same,Mortality/Q-wave MI/Stent thrombosis,MITT,73 (1.7) no. (%)
same,Q-wave MI,MITT,15 (0.4) no. (%)
same,Stent thrombosis,MITT,30 (0.7) no. (%)
same,All-cause mortality,MITT With STEMI,11 (2.5) no. (%)
same,IDR,MITT With STEMI,14 (3.2) no. (%)
same,MI,MITT With STEMI,16 (3.6) no. (%)
same,Mortality/MI/IDR,MITT With STEMI,34 (7.7) no. (%)
same,Mortality/Q-wave MI/IDR,MITT With STEMI,25 (5.6) no. (%)
same,Mortality/Q-wave MI/Stent thrombosis,MITT With STEMI,21 (4.7) no. (%)
same,Q-wave MI,MITT With STEMI,0 (0.0) no. (%)
same,Stent thrombosis,MITT With STEMI,10 (2.3) no. (%)
same,All-cause mortality,MITT Without STEMI,27 (0.7) no. (%)
same,IDR,MITT Without STEMI,52 (1.4) no. (%)
same,MI,MITT Without STEMI,276 (7.2) no. (%)
same,Mortality/MI/IDR,MITT Without STEMI,326 (8.5) no. (%)
same,Mortality/Q-wave MI/IDR,MITT Without STEMI,82 (2.1) no. (%)
same,Mortality/Q-wave MI/Stent thrombosis,MITT Without STEMI,52 (1.4) no. (%)
same,Q-wave MI,MITT Without STEMI,15 (0.4) no. (%)
same,Stent thrombosis,MITT Without STEMI,20 (0.5) no. (%)
same,All-cause mortality,Safety population,41 (0.9) no. (%)
same,IDR,Safety population,67 (1.6) no. (%)
same,MI,Safety population,293 (6.8) no. (%)
same,Mortality/MI/IDR,Safety population,365 (8.5) no. (%)
same,Mortality/Q-wave MI/IDR,Safety population,111 (2.6) no. (%)
same,Mortality/Q-wave MI/Stent thrombosis,Safety population,76 (1.8) no. (%)
same,Q-wave MI,Safety population,15 (0.3) no. (%)
same,Stent thrombosis,Safety population,30 (0.7) no. (%)
same,Angiographic complications (site reported): Abrupt vessel closure,ITT,22 (0.5)
same,Angiographic complications (site reported): Acute stent thrombosis,ITT,5 (0.1)
same,Angiographic complications (site reported): Need for urgent CABG,ITT,7 (0.2)
same,Angiographic complications (site reported): New thrombus or suspected thrombus,ITT,23 (0.5)
same,Angiographic complications (site reported): Threatened abrupt closure,ITT,12 (0.3)
same,Angiographic complications (site reported): Unsuccessful procedure,ITT,103 (2.4)
same,Angiographic complications (site reported): Abrupt vessel closure,ITT With STEMI,3 (0.7)
same,Angiographic complications (site reported): Acute stent thrombosis,ITT With STEMI,0 (0.0)
same,Angiographic complications (site reported): Need for urgent CABG,ITT With STEMI,0 (0.0)
same,Angiographic complications (site reported): New thrombus or suspected thrombus,ITT With STEMI,7 (1.5)
same,Angiographic complications (site reported): Threatened abrupt closure,ITT With STEMI,2 (0.4)
same,Angiographic complications (site reported): Unsuccessful procedure,ITT With STEMI,11 (2.4)
same,Angiographic complications (site reported): Abrupt vessel closure,ITT Without STEMI,19 (0.5)
same,Angiographic complications (site reported): Acute stent thrombosis,ITT Without STEMI,5 (0.1)
same,Angiographic complications (site reported): Need for urgent CABG,ITT Without STEMI,7 (0.2)
same,Angiographic complications (site reported): New thrombus or suspected thrombus,ITT Without STEMI,16 (0.4)
same,Angiographic complications (site reported): Threatened abrupt closure,ITT Without STEMI,10 (0.3)
same,Angiographic complications (site reported): Unsuccessful procedure,ITT Without STEMI,92 (2.4)
same,Angiographic complications (site reported): Abrupt vessel closure,MITT,22 (0.5)
same,Angiographic complications (site reported): Acute stent thrombosis,MITT,5 (0.1)
same,Angiographic complications (site reported): Need for urgent CABG,MITT,6 (0.1)
same,Angiographic complications (site reported): New thrombus or suspected thrombus,MITT,22 (0.5)
same,Angiographic complications (site reported): Threatened abrupt closure,MITT,12 (0.3)
same,Angiographic complications (site reported): Unsuccessful procedure,MITT,103 (2.4)
same,Angiographic complications (site reported): Abrupt vessel closure,MITT NSTEMI,19 (0.5)
same,Angiographic complications (site reported): Acute stent thrombosis,MITT NSTEMI,5 (0.1)
same,Angiographic complications (site reported): Need for urgent CABG,MITT NSTEMI,6 (0.2)
same,Angiographic complications (site reported): New thrombus or suspected thrombus,MITT NSTEMI,16 (0.4)
same,Angiographic complications (site reported): Threatened abrupt closure,MITT NSTEMI,10 (0.3)
same,Angiographic complications (site reported): Unsuccessful procedure,MITT NSTEMI,92 (2.4)
same,Angiographic complications (site reported): Abrupt vessel closure,Safety population,22 (0.5)
same,Angiographic complications (site reported): Acute stent thrombosis,Safety population,5 (0.1)
same,Angiographic complications (site reported): Need for urgent CABG,Safety population,6 (0.1)
same,Angiographic complications (site reported): New thrombus or suspected thrombus,Safety population,22 (0.5)
same,Angiographic complications (site reported): Threatened abrupt closure,Safety population,12 (0.3)
same,Angiographic complications (site reported): Unsuccessful procedure,Safety population,103 (2.4)
